Measurements: US11708338B2, “Substituted phenyl sulfonyl phenyl triazole thiones and uses thereof” (Neuropore Therapies, Inc., priority 2017, dated 2023)

Columns and labels:
Type in all cases: in vivo, mouse
[1] = tested on: Translocator Protein (18 kDa) (TSPO); assay: TSPO immunofluorescence in cortex of L61 mice, 3 month administration study; details: L61 ASYN transgenic mice, 5 and 10 mg/kg i.p. daily, 3 months
Procedure: Compound 1 was injected into L61 ASYN transgenic mice and non-transgenic control mice (i.p., once daily) at doses of 5 and 10 mg/kg for 3 months (79 total mice, n=14-17 mice per treatment group). The vehicle control consisted of a solution containing 5% DMSO+20% Cremphor EL+0.9% normal saline. The baseline grip strength of mice was evaluated prior to starting treatments for the 3 month study, and then re-evaluated following 70 days of treatment with vehicle or Compound 1 (5 or 10 mg/kg, i.p. daily).
Neuroinflammation is associated with increased expression of the 18-kDa translocator protein (TSPO), which is a marker for inflammation and is present on the mitochondria of activated microglia, astroglia and macrophages (Crawshaw and Robertson 2017). The effects of Compound 1 on the levels of Translocator Protein (18 kDa) (TSPO) were assessed in both L61 ASYN transgenic and non-transgenic mice in the aforementioned 3 month administration study. At the end of the study, the mice were sacrificed, and immunofluorescence (IF) detection of TSPO were assessed in the harvested brain tissues.
FIGS. 15A-B show the levels of TSPO immunolabeling in representative cross-sections of the cortex of the mice. […]

[2] = tested on: glial fibrillary acidic protein (GFAP); assay: GFAP IHC staining in sections containing hippocampus, 1 month administration study; details: L61 ASYN transgenic mice
Procedure: Neuroinflammation is also associated with increased expression of glial fibrillary acidic protein (GFAP) in activated astrocytes, which is induced by a variety of molecules including pro-inflammatory mediators released from activated microglia (Saijo et al. 2009). Increased expression of glial fibrillary acidic protein (GFAP) represents astroglial activation and gliosis during neurodegeneration. (Brahmachari et al., 2006). The effects of Compound 1 on GFAP expression were assessed in both L61 ASYN transgenic and non-transgenic mice in a 1 month administration study. After 30 days, the mice were sacrificed, and IHC detection of GFAP was assessed in the harvested brain tissues.
The harvested brain tissues from treated mice were fixed (drop fixed in 4% PFA) and then sectioned into 40 micro thick sections using a vibratome. The representative sections containing the hippocampus were assessed for GFAP with standard immunohistochemistry staining. The general methods used for GFAP immunostaining follow those described in Rockenstein et al., J Neurosci Res. 2002, 68(5):568-78.

[3] = tested on: monomeric ASYN; assay: ProteinSimple western biochemical evaluation of monomeric ASYN in cytosolic fraction of brain homogenates; details: L61 ASYN transgenic mice, 1, 5 or 10 mg/kg per day i.p., 1 month
Procedure: Multiple in vivo administration studies of Compound 1 were carried out in the Line 61 (L61) mThy1-alpha-synuclein transgenic mouse model of Parkinson's disease (PD). The mThy1-alpha-synuclein transgenic mouse model overexpresses wild-type human ASYN under the Thy-1 promoter studies (commonly referred to as Line 61 transgenic mice; Rockenstein et al., 2002). […]
Alpha-synuclein (ASYN) is a neuronal protein whose dysregulation has been implicated in the pathogenesis of PD. The effects of Compound 1 on alpha-synuclein aggregation were assessed in both L61 ASYN transgenic and non-transgenic mice in a 1 month administration study. […] At the end of one month, the mice were sacrificed, and immunohistochemical (IHC) detection of total alpha-synuclein deposits, insoluble alpha-synuclein deposits (PK+resistant), microtubule-associated protein 1A/1B-light chain 3 (LC3), and monomeric alpha-synuclein levels were assessed in the harvested brain tissues.
Biochemical evaluations were conducted using a ProteinSimple© western biochemical evaluation. Briefly, samples were mixed with pre-calculated volumes of 0.1×Sample Buffer and 5×Fluorescent Master Mix to make a final sample concentration of 0.4 mg/mL in 10 μL solution for signal optimization and evaporation reduction. […]

For `O=S(=O)(c1ccc(-n2cn[nH]c2=S)cc1)c1ccc(Cl)c(C(F)(F)F)c1` [Compound 1, 4-(4-((4-chloro-3-(trifluoromethyl)phenyl)sulfonyl)phenyl)-2,4-dihydro-3H-1,2,4-triazole-3-thione], the “levels of TSPO in cortex vs vehicle control” value [1] was “significantly decreased”, the “GFAP levels, IHC staining intensity in representative images (FIG. 16)” value ([2]; 5 mg/kg or 10 mg/kg daily i.p.) was “reducing cortical levels of GFAP” and the “GFAP levels, quantification (FIG. 17)” value ([2]; 10 mg/kg dose i.p. daily) was “reduces the cortical GFAP levels in a statistically significant manner”. For the same compound, the “cortical levels of monomeric ASYN in cytosolic fraction of brain homogenates” value [3] was “reduced” and the “hippocampal levels of monomeric ASYN in cytosolic fraction of brain homogenates” value [3] was “reduced”.
